Experimental data as given in patent US12433872B2, “Treatment of Acanthamoeba or Balamuthia trophozoites and/or cysts” (GEORGIA STATE UNIVERSITY RESEARCH FOUNDATION, INC., priority 2018, dated 2025).
pIC50: −log10 of the molar value. Where two headings read alike, the source gives them in different places.

What was measured:
Format in all cases: cell-based
[1] = tested on: Acanthamoeba healyi cysts; assay: Encystation drug susceptibility / excystation viability assay, 30 day recovery, A. healyi cysts; conditions: 720 h, read-out: A. healyi 30 day MCC
Protocol: (§1) The trophozoites of Acanthamoeba were harvested by mechanical detachment and collected via centrifugation at 4000 rpm at 4° C. for 5 minutes. The trophozoites were washed in 10 mL of Neff's Encystment Media (NEM). NEM composition is 20 mM Tris-HCL [pH 8.8] (2.43 g/L), 100 mM KCL (7.46 g/L), 8 mM MgSO4 (962.96 mg/L), 0.4 mM CaCL2 58.81 mg/L) and 1 mM NaHCO3 (84.01 mg/L) (Neff et al. 1964). All reagents were bought from Sigma Aldrich. Centrifugation of the trophozoites was repeated to ensure any residual growth medium was removed. The pellet was resuspended in a final volume of 15 mL of NEM, cultured in 75 cm^2 corning tissue culture flasks and incubated vertically in a thermal shaker, shaken at 100 rpm at 37° C. for 72 hours to produce fully matured cysts. NEM was supplemented with 250 μg of penicillin/streptomycin. Fresh cysts were produced each time for any experimentation.
(§2) At 72 hours the cysts were harvested using a cell scraper and collected via centrifugation at 4000 rpm at 25° C. for 10 minutes. The cells were washed twice in 10 mL of HyClone™ water, Molecular Biology Grade, and centrifugation was repeated to ensure the removal of any residual NEM. The cell suspension was washed with 0.5% sodium dodecyl sulphate (SDS) to remove any remaining trophozoites and immature cysts. The fully mature cysts were further washed twice with 10 mL of HyClone™ water and 1% NEM, centrifugation was repeated to remove any residue of SDS. The concentration of mature cysts was determined using a haemocytometer and adjusted to 1×10^4 cysts/mL in NEM.
(§3) All test compounds were prepared as 5 mg/mL stock solutions in dimethylsulfoxide (DMSO). All compounds were diluted in NEM, serially diluted in 2-fold dilutions 6 or 11 times, yielding a screening concentration range of 1.56 μg/mL to 50 μg/mL or 48 ng/mL to 50 μg/mL with a final highest screening concentration of 1% DMSO.
(§4) Based on this, a strain specific test period and also a 30 day non-specific recovery time were considered. For the 30 day recovery period, the media was changed 5 times to ensure the contents of wells dis not evaporate and have an effect within the results of the assay.
(§5) 90 μL of 1×10^4 Cysts/ml and 10 μL of experimental compounds from the screening plates were produced according to the protocols above and combined into a Corning clear 96 well treated tissue culture plate. Control wells include cysts in non-drug treated, 1% DMSO, NEM (to be used for negative growth control), NEM Blank, PG blank and cysts in non-drug treated, 1% DMSO, PG (to excyst cells and to be used for positive growth control). The total well volume for all wells was 100 μL. The drug exposed plates were screened at 27° C. for 6 or 24 hours only. At the exposure time point the plates were centrifuged at 4000 rpm at 25° C. for 10 minutes and washed twice with phosphate-buffered saline (PBS) to remove any residual experimental compound.
(§6) Once the plate(s) underwent the Encystation drug susceptibility process, all wells except the negative growth control and NEM blank wells received PG growth medium. All plates were left to recover at 27° C. for the strain specific time period of 5, 9 or 11 days depending on the species of Acanthamoeba. At each of the strain specific time points the plates were removed from incubation and microscopically analysed (qualitatively) for the excystation process for the emergence of excysted viable trophozoites or residual cysts. The presence of excysted trophozoites indicated viable amoebae (non-cystistatic or cysticidal—no effect) and the absence of excystation was considered as cystistatic/cysticidal effects.

[2] = tested on: Balamuthia mandrillaris trophozoites; assay: Activity against Balamuthia mandrillaris trophozoites; conditions: for pIC50: Balamuthia mandrillaris
Protocol: Balamuthia mandrillaris trophozoites were thawed and grown in 10 ml of BM-3 medium. […] After autoclaving, complete BM-3 media was produced by the addition of 10% fetal bovine serum and 125 μg of penicillin/streptomycin antibiotics. The table describes all of the compounds and the activity against Balamuthia trophozoites compared to the activity for select Acanthamoeba trophozoites shown in Table 5.

[3] = tested on: Acanthamoeba castellanii trophozoites; assay: Activity against Acanthamoeba castellanii trophozoites
Protocol: Two Acanthamoeba species (Acanthamoeba castellanii—ATCC50370 and Acanthamoeba culbertsoni—ATCC30171) were bought from the American Type Culture Collection (ATCC) and one species (Acanthamoeba healyi) was donated from the Centers for Disease Control and Prevention (CDC) for our experimentations. Trophozoites were thawed and grown in 10 mL of a nutrient rich Peptose-Glucose (PG) media. The PG media composition is 83.26 mM Glucose (15 g/L), Protease Peptone (15 g/L, yeast extract is manufactured under controlled conditions to retain its vitamin content and other nutritive values such as free amino acids, no other composition information given), 2.2 mM KH2PO4 (300 mg/L), 2.97 μM Thiamine (1 mg/L), 99.86 μM L-methionine (14.9 mg/L), 4.6 μM Vitamin B12 (83.3 μl of 0.1 mg/mL stock/L) and 68 μM Biotin (83.3 μl of 0.2 mg/mL stock/L). […] One mL/L of the salt solution was added to the media stock prior to autoclaving. All reagents were purchased from Sigma Aldrich except the Glucose which was purchased from Alfa Aesar. The cell pellet was resuspended in a final volume of 10 mL of PG media, cultured in 75 cm^2 coming tissue culture flasks and incubated at 27° C. PG was supplemented with 125 μg of penicillin/streptomycin. Sub-culturing occurred twice per week to allow the continued growth and development of the Acanthamoeba trophozoites. […]

[4] = tested on: Acanthamoeba castellanii (ATCC50370) cysts; assay: Encystation drug susceptibility / excystation viability assay, 30 day recovery, A. castellanii cysts; conditions: ATCC50370, 720 h, read-out: A. castellanii 30 day MCC
Protocol: as §1, §2, §3, §4, §5, §6

A549 cells = assay: Toxicity to human A549 cells; conditions: Homo sapiens, A549, read-out: A549 cell IC50
[5] = tested on: Acanthamoeba culbertsoni (ATCC30171) cysts; assay: Encystation drug susceptibility / excystation viability assay, 30 day recovery, A. culbertsoni cysts; conditions: ATCC30171, 720 h, read-out: A. culbertsoni 30 day MCC
Protocol: as §1, §2, §3, §4, §5, §6

[6] = read-out: Balamuthia mandrillaris IC50
[7] = read-out: A. cactellanii Trophozoite IC50
[8] = read-out: Acanthamoeba castellanii IC50
[9] = trophozoites, n = 2, read-out: Balamuthia mandrillaris IC50
[10] = trophozoites, n = 2, Table 6, read-out: Acanthamoeba castellanii IC50

pIC50 [2, 9]	pIC50 [3, 10]	Structure (SMILES)	pIC50 [2, 6]	pIC50 [3, 8]	other results
		COc1cc(Oc2c(F)cc(-c3nc4ccc(C(=N)NC(C)C)cc4[nH]3)cc2F)ccc1-c1nc2ccc(C(=N)NC(C)C)cc2[nH]1 [Compound A, 2-(3,5-Difluoro-4-(4-(6-(N-isopropylcarbamimidoyl)-1H-benzo[d]imidazol-2-yl)-3-methoxyphenoxy)phenyl)-N-isopropyl-1H-benzo[d]imidazole-6-carboximidamide]	6.22	5.92	MCC [1]: 7.9 µM; times more potent than pentamide as reported in Schuster et al. ([2]; B. mandrillaris, versus pentamidine 29.38 μM): 48.9; pIC50 ([2]; read-out: IC50 against B. mandrillaris): 6.22; pIC50 [3, 7]: 5.92; MCC [4]: 47.4 µM; pIC50 (A549 cells): 4.49; MCC [5]: 7.9 µM
6.44	5.61	N=C(N)c1ccc(OCc2ccc(-c3ccc(C(=N)N)cc3)cc2)cc1 [Compound AU]			
6.17	6.43	N=C(N)c1ccc(-c2ccc(C(=O)Nc3cccc(C(=N)N)c3)cc2)cc1 [Compound AV]			
		N=C(N)c1ccc(-c2ccc(-c3cc4cc(C(=N)N)ccc4[nH]3)cc2)cc1 [Compound AW]	6.46	4.86	
		N=C(N)c1ccc(-c2ccc(-c3nc4ccc(C(=N)N)cc4[nH]3)cc2)cc1 [Compound AX]	6.46	5.22	
7.40	5.22	CC(C)NC(=N)c1ccc2nc(-c3ccc(Nc4ccc(-c5nc6ccc(C(=N)NC(C)C)cc6[nH]5)cc4)cc3)[nH]c2c1 [Compound AY]			
7.40	6.26	CC(C)NC(=N)c1ccc2nc(-c3ccc(Oc4ccc(-c5nc6ccc(C(=N)NC(C)C)cc6[nH]5)cc4)cc3)[nH]c2c1 [Compound AZ]			
		CC(C)NC(=N)c1ccc2nc(-c3cc(F)c(Oc4ccc(-c5nc6ccc(C(=N)NC(C)C)cc6[nH]5)c(Cl)c4)c(F)c3)[nH]c2c1 [Compound B, 2-(2-Chloro-4-(2,6-difluoro-4-(6-(N-isopropylcarbamimidoyl)-1H-benzo[d]imidazol-2-yl)phenoxy)phenyl)-N-isopropyl-1H-benzo[d]imidazole-6-carboximidamide]	6.40	6.27	MCC [1]: 3.84 µM; pIC50 [3, 7]: 6.27; MCC [4]: 9.6 µM; pIC50 (A549 cells): 4.77; MCC [5]: 2.88 µM
6.30	4.75	N=C(c1ccc2nc(-c3ccc(Oc4ccc(-c5nc6ccc(C(=N)N7CCSCC7)cc6[nH]5)cc4)cc3)[nH]c2c1)N1CCSCC1 [Compound BH]			
		CC(C)NC(=N)c1ccc2nc(-c3cc(F)c(Oc4ccc(-c5nc6ccc(C(=N)NC(C)C)cc6[nH]5)c(F)c4)c(F)c3)[nH]c2c1 [Compound C, 2-(3,5-Difluoro-4-(3-fluoro-4-(6-(N-isopropylcarbamimidoyl)-1H-benzo[d]imidazol-2-yl)phenoxy)phenyl)-N-isopropyl-1H-benzo[d]imidazole-6-carboximidamide]	6.31	5.91	MCC [1]: 23.1 µM; pIC50 [3, 7]: 5.91; MCC [4]: 23.1 µM; pIC50 (A549 cells): 4.46; MCC [5]: 11.6 µM
		CC(C)NC(=N)c1ccc2nc(-c3ccc(Oc4ccc(-c5nc6ccc(C(=N)NC(C)C)cc6[nH]5)c(Br)c4)cc3Br)[nH]c2c1 [Compound D, 2,2′-(Oxybis(2-bromo-4,1-phenylene))bis(N-isopropyl-1H-benzo[d]imidazole-6-carboximidamide)]	7.00	6.51	MCC [1]: 3.4 µM; pIC50 [3, 7]: 6.51; MCC [4]: 3.4 µM; pIC50 (A549 cells): 5.38; MCC [5]: 1.27 µM
6.82	5.84	COc1cc(-c2nc3ccc(C(=N)NC(C)C)cc3[nH]2)ccc1Oc1ccc(-c2nc3ccc(C(=N)NC(C)C)cc3[nH]2)cc1C#N [Compound U, 2-(3-Cyano-4-(4-(6-(N-isopropylcarbamimidoyl)-1H-benzo[d]imidazol-2-yl)-2-methoxyphenoxy)phenyl)-N-isopropyl-1H-benzo[d]imidazole-6-carboximidamide]			
7.15	5.99	CC(C)NC(=N)c1ccc2nc(-c3ccc(Oc4ccc(-c5nc6ccc(C(=N)NC(C)C)cc6[nH]5)cc4C#N)cc3)[nH]c2c1 [V, 2-(3-Cyano-4-(4-(6-(N-isopropylcarbamimidoyl)-1H-benzo[d]imidazol-2-yl)phenoxy)phenyl)-N-isopropyl-1H-benzo[d]imidazole-6-carboximidamide]			
6.54	4.48	CC(C)NC(=N)c1ccc2nc(-c3ccc(Oc4c(F)cc(-c5nc6ccc(C(=N)NC(C)C)cc6[nH]5)cc4F)cc3)[nH]c2c1 [W, 2-(3,5-Difluoro-4-(4-(6-(N-isopropylcarbamimidoyl)-1H-benzo[d]imidazol-2-yl)phenoxy)phenyl)-N-isopropyl-1H-benzo[d]imidazole-6-carboximidamide]			
7.00	6.21	CC(C)NC(=N)c1ccc2nc(-c3ccc(Oc4ccc(-c5nc6ccc(C(=N)NC(C)C)cc6[nH]5)cc4C#N)c(F)c3)[nH]c2c1 [X, 2-(3-Cyano-4-(2-fluoro-4-(6-(N-isopropylcarbamimidoyl)-1H-benzo[d]imidazol-2-yl)phenoxy)phenyl)-N-isopropyl-1H-benzo[d]imidazole-6-carboximidamide]			
7.05	6.02	CC(C)NC(=N)c1ccc2nc(-c3ccc(Oc4ccc(-c5nc6ccc(C(=N)NC(C)C)cc6[nH]5)c(F)c4)c(C#N)c3)[nH]c2c1 [Y, 2-(3-Cyano-4-(3-fluoro-4-(6-(N-isopropylcarbamimidoyl)-1H-benzo[d]imidazol-2-yl)phenoxy)phenyl)-N-isopropyl-1H-benzo[d]imidazole-6-carboximidamide]			
6.55	5.73	COc1cc(Oc2ccc(-c3nc4ccc(C(=N)NC(C)C)cc4[nH]3)cc2C#N)ccc1-c1nc2ccc(C(=N)NC(C)C)cc2[nH]1 [Z, 2-(3-Cyano-4-(4-(6-(N-isopropylcarbamimidoyl)-1H-benzo[d]imidazol-2-yl)-3-methoxyphenoxy)phenyl)-N-isopropyl-1H-benzo[d]imidazole-6-carboximidamide]			
